From patent publication US8937076B2, “Crystalline form of entecavir, its preparation and the pharmaceutical composition and uses thereof” (Zhejiang Medicine Co., Ltd. Xinchang Pharaceutical Factory, priority 2007, dated 2015)

Assay: Solubility at room temperature
Assay type: physicochemical

Solubility in N,N-dimethylformamide (N. N-dimethylformamide): sparingly soluble
Solubility in dimethyl sulfoxide (dimethyl sulfoxide): soluble
Solubility in ethanol (ethanol): slightly soluble
Solubility in water (water): insoluble
Structure (SMILES): C=C1[C@H](CO)[C@@H](O)C[C@@H]1n1cnc2c(=O)[nH]c(N)nc21 [crystalline form of entecavir]
